Measured values: US20020026053A1, “Novel 3-(substituted) -2- indolinones compounds and use thereof as inhibitors of protein kinase activity” (priority 1997, published 2002)
“And” between values parts separate entries of the source, which are not always exact repeats. Equal values may be shown once. Read-outs that look alike come from different tables or passages of the source.

Target: T1, Met receptor (EGFR/Met chimeric cells, EMR) (Homo sapiens, UniProt P08581)
T1 construct: expressed in transfected cells; the other entry of the earlier key: EGFR (P00533, Epidermal growth factor receptor)
T1 sequence (P08581 with tags, fused parts or gaps): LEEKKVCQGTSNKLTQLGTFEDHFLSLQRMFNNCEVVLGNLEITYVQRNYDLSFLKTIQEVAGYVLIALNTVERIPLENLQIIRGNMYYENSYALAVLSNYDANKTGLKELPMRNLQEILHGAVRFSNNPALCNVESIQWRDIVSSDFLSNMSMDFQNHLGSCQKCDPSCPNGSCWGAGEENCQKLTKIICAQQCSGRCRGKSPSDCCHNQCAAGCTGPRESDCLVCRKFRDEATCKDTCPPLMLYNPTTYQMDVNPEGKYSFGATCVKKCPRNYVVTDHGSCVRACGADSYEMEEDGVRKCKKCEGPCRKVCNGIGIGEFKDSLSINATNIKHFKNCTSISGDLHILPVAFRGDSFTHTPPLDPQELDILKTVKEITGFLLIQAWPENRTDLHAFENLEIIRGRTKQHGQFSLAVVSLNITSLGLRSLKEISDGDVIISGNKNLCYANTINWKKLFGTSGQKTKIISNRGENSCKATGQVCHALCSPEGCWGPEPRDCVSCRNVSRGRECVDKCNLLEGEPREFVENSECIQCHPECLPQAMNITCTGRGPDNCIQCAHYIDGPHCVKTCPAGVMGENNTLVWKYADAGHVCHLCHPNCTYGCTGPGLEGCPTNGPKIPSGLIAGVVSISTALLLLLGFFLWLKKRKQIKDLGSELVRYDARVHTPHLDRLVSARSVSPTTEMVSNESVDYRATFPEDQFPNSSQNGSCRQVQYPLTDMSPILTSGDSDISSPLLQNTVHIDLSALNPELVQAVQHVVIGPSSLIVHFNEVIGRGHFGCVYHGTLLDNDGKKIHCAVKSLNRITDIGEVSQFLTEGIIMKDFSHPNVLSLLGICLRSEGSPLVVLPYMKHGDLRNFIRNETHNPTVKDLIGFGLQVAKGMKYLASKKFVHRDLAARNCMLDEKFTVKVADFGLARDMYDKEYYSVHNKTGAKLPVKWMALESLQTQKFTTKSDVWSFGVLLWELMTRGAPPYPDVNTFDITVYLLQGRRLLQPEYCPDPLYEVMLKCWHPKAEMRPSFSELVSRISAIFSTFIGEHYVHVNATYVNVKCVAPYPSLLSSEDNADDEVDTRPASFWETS
Assay: Met Autophosphorylation Assay
Type: biochemical
Procedure, shortened: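 Met phosphorylation was measured by capture ELISA. Lysates (90 μg/100 μl, HNTG plus 1 mM PMSF) from transiently transfected EGFR/Met chimera (EMR) cells were bound for 60 min at room temperature to wells holding rabbit anti-Met (C-28) on goat anti-rabbit coat. Phosphotyrosine was the read-out.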

SMILES	Met Kinase % Inhibition (P.130) [%]	Met Kinase % Inhibition (P.130) (protocol P.130)
CCOc1ccccc1C=C1C(=O)Nc2c(Br)cc(Br)c(C)c21 [10717/H02]	44.5	
Cc1c(Br)cc(Br)c2c1C(=Cc1cccs1)C(=O)N2 [10717/H03]	18.3	
Cc1c(Br)cc(Br)c2c1C(=Cc1cccn1C)C(=O)N2 [10717/H04]	14.0	
COc1ccc(C=C2C(=O)Nc3c(Br)cc(Br)c(C)c32)cc1OC [10720/H04]	21.3	
Cc1c(Br)cc(Br)c2c1C(=Cc1ccccc1O)C(=O)N2 [10720/H05]	51.0	
Cc1c(Br)cc(Br)c2c1C(=Cc1ccccc1)C(=O)N2 [10720/H06]	24.4	
CSc1ccc(C=C2C(=O)Nc3c(Br)cc(Br)c(C)c32)s1 [10720/H07]	10.8	
Cc1cc(O)cc(O)c1C=C1C(=O)Nc2c(Br)cc(Br)c(C)c21 [10720/H08]	40.0	
CCOc1cc(C=C2C(=O)Nc3c(Br)cc(Br)c(C)c32)ccc1O [10720/H09]	49.0	
COc1ccc(O)c(C=C2C(=O)Nc3c(Br)cc(Br)c(C)c32)c1 [10720/H10]	48.2	
Cc1c(Br)cc(Br)c2c1C(=Cc1ncc[nH]1)C(=O)N2 [10720/H11]	28.0	
Cc1c(Br)cc(Br)c2c1C(=Cc1nc3ccccc3n1C)C(=O)N2 [10721/H02]	39.7	
Cc1c(Br)cc(Br)c2c1C(=Cc1nn(C)cc1Cl)C(=O)N2 [10721/H03]	21.3	
Cc1cc(C=C2C(=O)Nc3c(Br)cc(Br)c(C)c32)sc1C [10721/H04]	72.9	
Cc1c(Br)cc(Br)c2c1C(=Cc1cc3c([nH]1)CCCC3)C(=O)N2 [10721/H05]	33.6	
Cc1c(Br)cc(Br)c2c1C(=Cc1cc([N+](=O)[O-])cc(CCl)c1O)C(=O)N2 [10721/H06]	90.3	
Cc1c(Br)cc(Br)c2c1C(=Cc1ccc(Cl)s1)C(=O)N2 [10721/H07]	10.4	
Cc1cc(C)c(C=C2C(=O)Nc3c(Br)cc(Br)c(C)c32)[nH]1 [10721/H08]	42.5	
Cc1c(Br)cc(Br)c2c1C(=Cc1ccc(O)c(C(C)(C)C)c1)C(=O)N2 [10721/H09]	36.7	
Cc1c(Br)cc(Br)c2c1C(=Cc1cc(Br)c(O)c(C(C)(C)C)c1)C(=O)N2 [10721/H10]	46.9	
Cc1c(Br)cc(Br)c2c1C(=Cc1cc(C(C)(C)C)c(O)c(C(C)(C)C)c1)C(=O)N2 [10721/H11]	46.0	
Cc1c(Br)cc(Br)c2c1C(=Cc1cc([N+](=O)[O-])c(O)c(C(C)(C)C)c1)C(=O)N2 [10722/H02]	37.8	
Cc1c(Br)cc(Br)c2c1C(=Cc1c(O)cc(O)cc1O)C(=O)N2 [10722/H03]	100.5	
Cc1c(Br)cc(Br)c2c1C(=Cc1ccc([N+](=O)[O-])s1)C(=O)N2 [10722/H04]	62.2	

SMILES	Met Kinase % Inhibition (P.130) [%]	Met Kinase % Inhibition (P.130) (protocol P.130)
Cc1c(Br)cc(Br)c2c1C(=Cc1ccc(C(=O)O)cc1)C(=O)N2 [10722/H05]	83.2	
Cc1c(Br)cc(Br)c2c1C(=Cc1ccc(F)cc1F)C(=O)N2 [10722/H06]	70.3	
Cc1cc(C=C2C(=O)Nc3c(Br)cc(Br)c(C)c32)cc(C)c1O [10722/H07]	51.0	
Cc1c(Br)cc(Br)c2c1C(=Cc1cc(Cl)c(O)c(C(C)(C)C)c1)C(=O)N2 [10722/H08]	72.6	
Cc1c(Br)cc(Br)c2c1C(=Cc1csc([N+](=O)[O-])c1)C(=O)N2 [10722/H09]	67.6	
CCCCN(CCCC)c1ccc(C=C2C(=O)Nc3c(Br)cc(Br)c(C)c32)cc1 [10722/H10]	30.3	
Cc1c(Br)cc(Br)c2c1C(=Cc1ccc(C(F)(F)F)cc1)C(=O)N2 [10722/H11]	66.1	
Cc1c(Br)cc(Br)c2c1C(=Cc1ccc(O)c(O)c1O)C(=O)N2 [10723/H02]	100.8	
COc1cccc(C=C2C(=O)Nc3c(Br)cc(Br)c(C)c32)c1O [10723/H03]	69.2	
Cc1c(Br)cc(Br)c2c1C(=Cc1cc(O)c(O)c(Br)c1)C(=O)N2 [10723/H04]	95.6	
CC(=O)Oc1ccc(C=C2C(=O)Nc3c(Br)cc(Br)c(C)c32)cc1OC(C)=O [10723/H05]	64.2	
Cc1cc(C=C2C(=O)Nc3c(Br)cc(Br)c(C)c32)ccc1O [10723/H06]	44.9	
Cc1c(Br)cc(Br)c2c1C(=Cc1ccccc1Br)C(=O)N2 [10723/H07]	44.9	
Cc1c(Br)cc(Br)c2c1C(=Cc1ccc(O)cc1O)C(=O)N2 [10723/H08]	86.2	
COc1ccc(C=C2C(=O)Nc3c(Br)cc(Br)c(C)c32)c(O)c1 [10723/H09]	62.1	
Cc1c(Br)cc(Br)c2c1C(=Cc1cccc(Br)c1)C(=O)N2 [10723/H10]	46.4	
Cc1c(Br)cc(Br)c2c1C(=Cc1cc(C(C)(C)C)cc(C(C)(C)C)c1O)C(=O)N2 [10723/H11]	76.2	
Cc1c(Br)cc(Br)c2c1C(=Cc1ccc(N(C)C)c3ccccc13)C(=O)N2 [10724/H02]	51.9	
Cc1c(Br)cc(Br)c2c1C(=Cc1ccc(O)c([N+](=O)[O-])c1)C(=O)N2 [10724/H03]	26.1	
Cc1c(Br)cc(Br)c2c1C(=Cc1ccc([N+](=O)[O-])c(O)c1)C(=O)N2 [10724/H04]	69.3	
Cc1c(Br)cc(Br)c2c1C(=Cc1cc3c4c(c1O)CCCN4CCC3)C(=O)N2 [10724/H05]	68.6	
Cc1c(Br)cc(Br)c2c1C(=Cc1cc(C(C)C)c(O)c(C(C)C)c1)C(=O)N2 [10724/H06]	32.8	
Cc1c(Br)cc(Br)c2c1C(=Cc1cc3ccccc3o1)C(=O)N2 [10724/H07]	8.6	
COc1cc(O)c(C=C2C(=O)Nc3c(Br)cc(Br)c(C)c32)c(OC)c1 [10724/H08]	65.8	

SMILES	Met Kinase % Inhibition (P.130) [%]	Met Kinase % Inhibition (P.130) (protocol P.130)
Cc1c(Br)cc(Br)c2c1C(=Cc1cccn1-c1ccc(Cl)cc1)C(=O)N2 [10724/H09]	4.2	
CCc1ccc(C=C2C(=O)Nc3c(Br)cc(Br)c(C)c32)o1 [10724/H10]	72.2	
Cc1c(Br)cc(Br)c2c1C(=Cc1sc3scc(C)c3c1C)C(=O)N2 [10724/H11]	9.8	
Cc1c(Br)cc(Br)c2c1C(=Cc1sccc1Br)C(=O)N2 [10725/H02]	15.8	
COc1ccc(Br)c(C=C2C(=O)Nc3c(Br)cc(Br)c(C)c32)c1O [10725/H03]	58.3	
Cc1ccc(C=C2C(=O)Nc3c(Br)cc(Br)c(C)c32)o1 [10725/H04]	47.1	
Cc1cc(C=C2C(=O)Nc3c(Br)cc(Br)c(C)c32)[nH]n1 [10725/H05]	20.8	
COc1cc(C)cc(O)c1C=C1C(=O)Nc2c(Br)cc(Br)c(C)c21 [10725/H06]	33.0	
Cc1c(Br)cc(Br)c2c1C(=Cc1ccc(N3CCN(C=O)CC3)cc1)C(=O)N2 [10725/H07]	14.2	
Cc1c(Br)cc(Br)c2c1C(=Cc1ccc(N3CCOCC3)cc1)C(=O)N2 [10725/H08]	5.7	
COC(=O)Cc1c(Cl)[nH]c(C=C2C(=O)Nc3c(Br)cc(Br)c(C)c32)c1C(=O)OC [10725/H09]	41.6	
Cc1c(Br)cc(Br)c2c1C(=Cc1c(Br)cnn1-c1ccc(Cl)cc1)C(=O)N2 [10725/H10]	21.8	
Cc1c(Br)cc(Br)c2c1C(=Cc1c[nH]cn1)C(=O)N2 [10725/H11]	17.8	
Cc1c(Br)cc(Br)c2c1C(=Cc1ccccc1[N+](=O)[O-])C(=O)N2 [10726/H02]	66.6	
CCOC(=O)c1[nH]c(C=C2C(=O)Nc3c(Br)cc(Br)c(C)c32)c(C(=O)OC)c1C [10726/H03]	44.8	
Cc1cc(C=C2C(=O)Nc3c(Br)cc(Br)c(C)c32)cc(C(C)(C)C)c1O [10726/H04]	77.6	
COc1cccc(C=C2C(=O)Nc3ccc(S(=O)(=O)N4CCOCC4)cc32)c1 [10736/F10]	65.3	
O=C1Nc2ccc(S(=O)(=O)N3CCOCC3)cc2C1=Cc1ccccc1Cl [10736/F11]	25.2	
O=C1Nc2ccc(CCCl)cc2C1=Cc1ccc(Cl)cc1 [10736/G02]	48.3	
O=C1Nc2ccc(CCCl)cc2C1=Cc1ccccc1C(F)(F)F [10736/G03]	0.6	
Cc1cccc(C=C2C(=O)Nc3ccc(CCCl)cc32)c1 [10736/G04]	−6.6	
Cc1ccc(C=C2C(=O)Nc3ccc(CCCl)cc32)cc1 [10736/G05]		0.0% and 1.3%
